This assay has as its target T1, fibrinogen binding to platelets (glycoprotein IIb/IIIa) (Homo sapiens, UniProt P05106+P08514).
T1 construct: Washed human platelets were prepared from platelet-rich plasma by gel filtration; from tissue
Description: Test 1: Fibrinogen Binding to Platelets (FITC-fibrinogen, flow cytometry). Conditions: washed human platelets activated with 20 μM ADP, fixed; 10 μg/ml FITC-fibrinogen; 30 minutes at room temperature; read-out: IC50 (dose required to inhibit the binding by 50%). As for the experimental part:
Test 1: Fibrinogen Binding to Platelets
Washed human platelets were prepared from platelet-rich plasma by gel filtration. The washed platelets were activated with 20 μM ADP for 10 minutes and then fixed for 30 minutes with 0.8% paraformaldehyde. The platelets were then washed by centrifugation and suspended in HEPES-Tyrodes buffer containing […].
350 μl of platelets were incubated at a final concentration of 2×10^8/ml with 10 μg/ml FITC-fibrinogen and test compound. The reaction was left for 30 minutes at room temperature. The FITC fluoresence of bound fibrinogen was measured by using a FACS can flow cytometer.
Specific binding was calculated by subtracting the binding in the presence of 50-fold excess unlabeled fibrinogen. Result was expressed at IC50 value, i.e. dose required to inhibit the binding by 50%.
A general note: In flow cytometry, cells or beads pass a laser one at a time.

Molecules are shown by their SMILES. pIC50: −log10 of the molar value.

T1 sequence (P08514 32-887 limits assumed): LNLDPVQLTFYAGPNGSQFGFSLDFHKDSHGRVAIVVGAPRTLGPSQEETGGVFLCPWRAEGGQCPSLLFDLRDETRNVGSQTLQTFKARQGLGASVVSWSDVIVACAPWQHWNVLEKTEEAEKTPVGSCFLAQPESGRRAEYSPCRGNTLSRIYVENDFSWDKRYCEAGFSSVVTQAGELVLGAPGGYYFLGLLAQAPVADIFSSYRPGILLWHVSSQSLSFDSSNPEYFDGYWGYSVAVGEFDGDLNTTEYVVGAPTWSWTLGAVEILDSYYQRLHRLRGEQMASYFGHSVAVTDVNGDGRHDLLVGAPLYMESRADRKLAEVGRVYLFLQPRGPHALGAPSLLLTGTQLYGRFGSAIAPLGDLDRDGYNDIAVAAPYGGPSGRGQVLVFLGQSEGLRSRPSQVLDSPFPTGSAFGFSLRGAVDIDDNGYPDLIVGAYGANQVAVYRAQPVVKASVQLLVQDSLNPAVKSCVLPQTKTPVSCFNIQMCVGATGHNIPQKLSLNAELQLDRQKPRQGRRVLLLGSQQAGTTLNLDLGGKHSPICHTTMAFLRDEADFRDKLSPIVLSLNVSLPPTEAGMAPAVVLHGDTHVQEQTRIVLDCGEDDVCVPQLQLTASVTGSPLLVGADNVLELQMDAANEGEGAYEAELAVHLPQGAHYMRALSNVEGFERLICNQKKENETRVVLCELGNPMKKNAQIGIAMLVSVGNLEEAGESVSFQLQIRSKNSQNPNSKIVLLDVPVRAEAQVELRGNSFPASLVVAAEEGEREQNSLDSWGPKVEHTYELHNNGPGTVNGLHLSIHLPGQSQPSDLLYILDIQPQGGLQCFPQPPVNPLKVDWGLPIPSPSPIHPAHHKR
T1 sequence (P08514 891-1039 limits assumed): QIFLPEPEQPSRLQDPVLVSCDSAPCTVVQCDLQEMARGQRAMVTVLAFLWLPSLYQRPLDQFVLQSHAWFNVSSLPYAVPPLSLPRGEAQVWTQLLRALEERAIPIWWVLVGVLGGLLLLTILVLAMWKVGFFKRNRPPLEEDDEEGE
T1 sequence (P05106 27-788): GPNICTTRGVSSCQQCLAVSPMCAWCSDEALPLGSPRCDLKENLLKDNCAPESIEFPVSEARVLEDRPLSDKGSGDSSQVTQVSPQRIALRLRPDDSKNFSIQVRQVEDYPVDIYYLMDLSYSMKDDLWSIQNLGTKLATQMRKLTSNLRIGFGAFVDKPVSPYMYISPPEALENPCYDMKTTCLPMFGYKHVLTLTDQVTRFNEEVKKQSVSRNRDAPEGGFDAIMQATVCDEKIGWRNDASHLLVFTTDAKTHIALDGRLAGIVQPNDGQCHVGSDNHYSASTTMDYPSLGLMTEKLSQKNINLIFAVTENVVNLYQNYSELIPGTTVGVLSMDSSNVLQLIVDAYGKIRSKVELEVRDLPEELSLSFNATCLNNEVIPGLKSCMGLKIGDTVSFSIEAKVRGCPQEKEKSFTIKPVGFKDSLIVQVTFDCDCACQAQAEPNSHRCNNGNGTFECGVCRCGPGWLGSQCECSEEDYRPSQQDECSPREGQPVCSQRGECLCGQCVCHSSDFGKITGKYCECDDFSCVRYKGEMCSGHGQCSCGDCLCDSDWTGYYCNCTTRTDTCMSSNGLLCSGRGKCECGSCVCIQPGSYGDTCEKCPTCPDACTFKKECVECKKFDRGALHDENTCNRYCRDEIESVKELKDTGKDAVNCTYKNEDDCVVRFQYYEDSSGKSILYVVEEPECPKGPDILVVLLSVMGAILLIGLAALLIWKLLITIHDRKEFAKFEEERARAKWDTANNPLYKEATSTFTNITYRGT

Regarding `CC(=O)NC(CNC(=O)[C@@H]1CCCN(C(=O)CCC2CCNCC2)C1)C(=O)O` (stereo partly shown) [Example 1], the pIC50 was 7.80.

The term pIC50 denotes −log10 of the IC50, conventionally taken in molar units.

These data come from patent US20010016571A1, “N-[ (R) -1-{3- (4- piperidyl) propionyl } -3-piperidylcarbonyl] -2 (S) -acetylamino-beta -alanine as fibrinogen receptor antagonist” (FUJISAWA PHARMACEUTICAL CO., LTD., priority 1996, published 2001).
